Key:
SNK-6 (IL-2 2.5 ng/mL) [1] = assay: percent inhibition of viability; higher = more inhibition; conditions: 72 h
NKL (IL-2 2.5 ng/mL) [2] = assay: as above; conditions: 72 h
YT (IL-2 2.5 ng/mL) [3] = assay: as above; conditions: 72 h
[4] = tested on: normal primary NK cells, pool 1 (3 donors), resting (IL-2 0 ng/mL); assay: as above; conditions: 72 h
NK-YS (IL-2 2.5 ng/mL) [5] = assay: as above; conditions: 72 h
KHYG-1 (IL-2 2.5 ng/mL) [6] = assay: as above; conditions: 72 h
NK-92 (IL-2 2.5 ng/mL) [7] = assay: as above; conditions: 72 h
KAI3 (IL-2 2.5 ng/mL) [8] = assay: as above; conditions: 72 h
[9] = tested on: normal primary NK cells, pool 2 (3 donors) (IL-2 2.5 ng/mL); assay: as above; conditions: 72 h
[10] = tested on: normal primary NK cells, pool 3 (3 donors) (IL-2 2.5 ng/mL); assay: as above; conditions: 72 h
DERL-7 (IL-2 2.5 ng/mL) [11] = assay: as above; conditions: 72 h
[12] = tested on: normal primary NK cells, pool 1 (3 donors) (IL-2 2.5 ng/mL); assay: as above; conditions: 72 h
IMC-1 (IL-2 20 ng/mL) [13] = assay: as above; conditions: 72 h
[14] = tested on: normal NK cells expanded with K562-aAPC; assay: drug sensitivity score (DSS) (DSS units); higher = more sensitive; extreme values may be limits of the assay; conditions: 72 h; IL-2 2.5 ng/mL
Experimental: (§1)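 Drug sensitivity and resistance testing on K562-aAPC-expanded normal NK cells: 5 concentrations (10-fold steps over a 10,000-fold range), 72 h at 37 °C, viability by CellTiter-Glo normalised to DMSO and benzethonium chloride controls; DSS from the fitted curve.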

[15] = tested on: normal NK cells expanded with K562-aAPC; assay: percent inhibition of viability; higher = more inhibition; conditions: 72 h, IL-2 2.5 ng/mL
Experimental: as §1

SNK-6 (IL-2 2.5 ng/mL) [16] = assay: drug sensitivity score (DSS) (DSS units); higher = more sensitive; extreme values may be limits of the assay; conditions: 72 h
NKL (IL-2 2.5 ng/mL) [17] = assay: as above; conditions: 72 h
YT (IL-2 2.5 ng/mL) [18] = assay: as above; conditions: 72 h
[19] = tested on: normal primary NK cells, pool 1 (3 donors), resting (IL-2 0 ng/mL); assay: as above; conditions: 72 h
NK-YS (IL-2 2.5 ng/mL) [20] = assay: as above; conditions: 72 h
KHYG-1 (IL-2 2.5 ng/mL) [21] = assay: as above; conditions: 72 h
NK-92 (IL-2 2.5 ng/mL) [22] = assay: as above; conditions: 72 h
KAI3 (IL-2 2.5 ng/mL) [23] = assay: as above; conditions: 72 h
[24] = tested on: normal primary NK cells, pool 2 (3 donors) (IL-2 2.5 ng/mL); assay: as above; conditions: 72 h
[25] = tested on: normal primary NK cells, pool 3 (3 donors) (IL-2 2.5 ng/mL); assay: as above; conditions: 72 h
DERL-7 (IL-2 2.5 ng/mL) [26] = assay: as above; conditions: 72 h
[27] = tested on: normal primary NK cells, pool 1 (3 donors) (IL-2 2.5 ng/mL); assay: as above; conditions: 72 h
IMC-1 (IL-2 20 ng/mL) [28] = assay: as above; conditions: 72 h

CC(O)(CS(=O)(=O)c1ccc(F)cc1)C(=O)Nc1ccc(C#N)c(C(F)(F)F)c1 (stereo not drawn) [Bicalutamide] (max concentration tested 10000 nM)
percent inhibition of viability [%]
Conditions | 1 nM | 10 nM | 100 nM | 1000 nM | 10000 nM
DERL-7 (IL-2 2.5 ng/mL) [11] | 1.65 | 7.46 | -4.98 | 5.71 | 5.22
IMC-1 (IL-2 20 ng/mL) [13] | 3.29 | 5.96 | 8.36 | 9.75 | 42.3
KAI3 (IL-2 2.5 ng/mL) [8] | 14.6 | 10.8 | 21.5 | 20.8 | 43.6
KHYG-1 (IL-2 2.5 ng/mL) [6] | 3.99 | 22.1 | 3.98 | 27.4 | 19.9
NK-92 (IL-2 2.5 ng/mL) [7] | 10.3 | 8.57 | 4.92 | 20.1 | 30.6
NK-YS (IL-2 2.5 ng/mL) [5] | 9.7 | 4 | 13.7 | 9.96 | 23.5
NKL (IL-2 2.5 ng/mL) [2] | 0.19 | 16.2 | 5.15 | 40.3 | 35.9
SNK-6 (IL-2 2.5 ng/mL) [1] | 9.4 | 13.4 | 4.02 | 9.59 | 26.6
YT (IL-2 2.5 ng/mL) [3] | 3.05 | 13.5 | 3.8 | 17.9 | 16.7
[4] | 2.97 | -8.07 | -9.37 | -26.1 | -10.4
[9] | -0.02 | -1.32 | -0.86 | -0.13 | 7.12
[10] | 3.23 | -2.54 | 5.11 | -2.8 | -0.48
[12] | -3.4 | -8.36 | -1.19 | -15.8 | 6.46
[15] | 5.68 | 3.24 | 1.15 | 11.5 | 13.4

Conditions | drug sensitivity score
DERL-7 (IL-2 2.5 ng/mL) [26] | 0
IMC-1 (IL-2 20 ng/mL) [28] | 3.5
KAI3 (IL-2 2.5 ng/mL) [23] | 7.75
KHYG-1 (IL-2 2.5 ng/mL) [21] | 4.48
NK-92 (IL-2 2.5 ng/mL) [22] | 3.61
NK-YS (IL-2 2.5 ng/mL) [20] | 2.2
NKL (IL-2 2.5 ng/mL) [17] | 8.09
SNK-6 (IL-2 2.5 ng/mL) [16] | 2.16
YT (IL-2 2.5 ng/mL) [18] | 1.84
[14] | 0.74
[19] | 0
[24] | 0
[25] | 0
[27] | 0

CCNC(=O)CCC/C=C\C[C@@H]1[C@@H](/C=C/[C@@H](O)CCc2ccccc2)[C@H](O)C[C@@H]1O [Bimatoprost] (max concentration tested 5500 nM)
percent inhibition of viability [%]
Conditions | 0.55 nM | 5.5 nM | 55 nM | 550 nM | 5500 nM
DERL-7 (IL-2 2.5 ng/mL) [11] | -5.3 | -2.53 | -3.35 | -10.4 | -4.94
IMC-1 (IL-2 20 ng/mL) [13] | -1.84 | -3.91 | -0.72 | -4.98 | -0.62
KAI3 (IL-2 2.5 ng/mL) [8] | -9.15 | -10.1 | -8.67 | -6.35 | -7.76
KHYG-1 (IL-2 2.5 ng/mL) [6] | -6.16 | -6.81 | -5.76 | -5.66 | -2.75
NK-92 (IL-2 2.5 ng/mL) [7] | -8.7 | -4.9 | -11.6 | -5.65 | -8.03
NK-YS (IL-2 2.5 ng/mL) [5] | -3.18 | -8.08 | -6.49 | -9.97 | -6.34
NKL (IL-2 2.5 ng/mL) [2] | -10.6 | -7.92 | -13.9 | -14.1 | 7.05
SNK-6 (IL-2 2.5 ng/mL) [1] | 17.6 | 0.29 | 2.65 | -15.2 | -3.36
YT (IL-2 2.5 ng/mL) [3] | -1.68 | -3.7 | -5.41 | -3.35 | -5.44
[4] | 5.81 | -2 | -9.81 | 4.1 | 6.67
[9] | -11.3 | -11.2 | -11.5 | -10.1 | -6.11
[10] | -15.9 | -13.5 | -18 | -10.8 | -6.94
[12] | -4.1 | -2.93 | -7.66 | 5.27 | 3.45
[15] | -0.32 | -7.8 | -7.43 | -6.39 | -7.75

Conditions | drug sensitivity score
DERL-7 (IL-2 2.5 ng/mL) [26] | 0.89
IMC-1 (IL-2 20 ng/mL) [28] | 0.89
KAI3 (IL-2 2.5 ng/mL) [23] | 0.89
KHYG-1 (IL-2 2.5 ng/mL) [21] | 0.89
NK-92 (IL-2 2.5 ng/mL) [22] | 0.89
NK-YS (IL-2 2.5 ng/mL) [20] | 0.89
NKL (IL-2 2.5 ng/mL) [17] | 0
SNK-6 (IL-2 2.5 ng/mL) [16] | 0
YT (IL-2 2.5 ng/mL) [18] | 0.89
[14] | 0.89
[19] | 0
[24] | 0.89
[25] | 0.89
[27] | 0
